Measured values published in paper PMC5095062, “The novel choline kinase inhibitor ICL-CCIC-0019 reprograms cellular metabolism and inhibits cancer cell growth” (Oncotarget, 2016).
Like-named read-outs stand apart in the source and are kept apart here.

How the values were obtained:
[1] = tested on: NCI-60 panel of cell lines; test: NCI-60 screen (whole panel); format: cell-based; conditions: Homo sapiens
Excerpt: The compound was then screened against a larger panel of cancer cell lines of diverse histopathologic origin, the NCI-60 screen. […] Mining of publicly available Cancer Genome Atlas (TCGA) expression data identified CHKA amplification and/or mRNA upregulation in 11% of breast, 5–10% of lung, 8% of ovarian, 7% of colorectal and 5% of prostate cancers. Furthermore, CHKA mRNA expression is higher in multiple tumor types compared to normal tissue (Supplementary Figure S1D). The gene was rarely mutated or deleted (0–2.5% mutation rate and < 1% deletion among all tested cancer types). The consistently high expression in a wide variety of tumor types highlights the relevance of CHKA in malignancy and role as a therapeutic target.

[2] = tested on: HCT116 cells; test: DNA cell cycle analysis (flow cytometry, propidium iodide); format: cell-based, human
Procedure: Supernatant and cells were harvested, washed and centrifuged. The cell pellet was resuspended it 1 mL ice-cold PBS and the suspension added to 9 mL 70% ethanol, while mixing gently. Cells were fixed for at least 2 hours at −20°C. Cells were centrifuged and rehydrated in 3 mL cold PBS for 15 minutes. Samples were stained in 500 μL buffer containing 100 mM Tris pH 7.4, 150 mM NaCl, 1 mM CaCl2, 0.5 mM MgCl2, 0.1% Triton X-100, 0.1 mg/ml RNase A, 50 μg/ml propidium iodide (all items from Sigma-Aldrich) at 37°C for 3 h protected from light. Data were acquired on a BD FACS Canto flow cytometer (BD Bioscience) and analyzed using FlowJo 7.6.4 software (Tree Star).

[3] = tested on: HCT116 xenografts; test: Antitumor activity in HCT116 xenograft model; format: in vivo, BALB/c nude mice; conditions: 5 mg/kg i.p. once a day on days 1–3, 11 day recovery
Procedure: All animal experiments were conducted in accordance with the United Kingdom Home Office Guidance on the Operation of The Animals (Scientific Procedures) Act 1986 Amendment Regulations 2012 and within the published guidelines for the welfare and use of animals in cancer research. Xenografts were established in female BALB/c nude mice aged 6–8 weeks (Harlan) by subcutaneous (s.c.) injection of 100 μL HCT116 cells (5 × 10^6 in PBS) on the back of mice. Tumor dimensions were frequently measured by calliper and volumes calculated by the following equation: volume (mm^3) = (π/6) × a × b × c, where a, b, and c represent 3 orthogonal axes of the tumor. When tumor volumes reached approximately 50–100 mm^3 (ca. 10 days post injection), mice were used for subsequent studies.

[4] = tested on: HCT116 cells; test: Antiproliferative activity (SRB); format: cell-based; conditions: Homo sapiens, HCT-116
Procedure: Enzymatic kinase activity, [^3H]choline to [^3H]PCho conversion and growth inhibition assays was conducted as previously described. [^3H]choline incorporation into soluble and lipid fractions was determined by a pulse-chase experiment. HCT116 cells were seeded at a density of 3 × 10^5 cell per well into 12-well plates and incubated overnight. Cells were treated with 1 or 10 μM ICL-CCIC-0019 for 1 h and pulsed in presence of inhibitor with 18.5 kBq/mL [^3H]choline chloride in 500 μL for 1 additional h. Cells were briefly rinsed with RPMI and incubated with fresh, non-radioactive medium for 6 h. Metabolites were extracted as described elsewhere, but additionally the radioactivity of the choline-containing and chloroform (lipid-containing) fractions was measured. Uptake of radiolabeled metabolite-tracers was measured as described elsewhere. Antiproliferative activity was measured after 72 h continuous exposure to inhibitors by sulforhodamine B (SRB) assay as described elsewhere. Apoptosis was determined using Caspase 3/7 Glo assay (Promega) according to the manufacturer's instructions.

[5] = molecular target: EPH-A4 (Homo sapiens, UniProt P54764); test: Kinase selectivity screen; format: biochemical; conditions: EPH-A4, 10 μM
Procedure: (§1) The substantially less demanding synthesis of ICL-CCIC-0019 compared with MN58B bears additional advantages. […] This consequently diminished intracellular PCho concentration, and importantly, the incorporation of [^3H]-choline into lipids (Figure 1D). […] To assess kinase specificity, ICL-CCIC-0019 was tested against a panel of 131 human kinases (Figure 1E and Supplementary Table S1). […] Inhibition greater than 20% was attained for insulin-like growth factor 1 (IGF-1R, 35 ± 7% inhibition), mitogen-activated protein kinase-activated protein kinase 3 (MAPKAP-K3, 33 ± 6%), extracellular signal regulated kinase 8 (ERK8, 31 ± 4%), ribosomal S6 kinase 1 (RSK1, 22 ± 6%), and v-erb-a erythroblastic leukemia viral oncogene homolog 4 (HER4, 21 ± 7%).

[6] = molecular target: ERK1 (Homo sapiens, UniProt P27361); test: Kinase selectivity screen; format: biochemical; conditions: ERK1, 10 μM
Procedure: as §1

[7] = molecular target: GCK (Homo sapiens, UniProt Q12851); test: Kinase selectivity screen; format: biochemical
Procedure: as §1

[8] = molecular target: IGF-1R (Homo sapiens, UniProt P08069); test: Kinase selectivity screen; format: biochemical
Procedure: as §1

[9] = molecular target: JAK2 (Homo sapiens, UniProt O60674); test: Kinase selectivity screen; format: biochemical; conditions: JAK2, 10 μM
Procedure: as §1

[10] = molecular target: LKB1 (Homo sapiens, UniProt Q15831); test: Kinase selectivity screen; format: biochemical; conditions: LKB1, 10 μM
Procedure: as §1

[11] = molecular target: MEKK1 (Homo sapiens, UniProt Q13233); test: Kinase selectivity screen; format: biochemical; conditions: MEKK1, 10 μM
Procedure: as §1

[12] = molecular target: PKA (Homo sapiens, UniProt P17612); test: Kinase selectivity screen; format: biochemical
Procedure: as §1

[13] = molecular target: ROCK 2 (Homo sapiens, UniProt O75116); test: Kinase selectivity screen; format: biochemical; conditions: ROCK 2, 10 μM
Procedure: as §1

[14] = molecular target: SYK (Homo sapiens, UniProt P43405); test: Kinase selectivity screen; format: biochemical
Procedure: as §1

[15] = molecular target: Src (Homo sapiens, UniProt P12931); test: Kinase selectivity screen; format: biochemical
Procedure: as §1

[16] = molecular target: TIE2 (Homo sapiens, UniProt Q02763); test: Kinase selectivity screen; format: biochemical; conditions: TIE2, 10 μM
Procedure: as §1

[17] = molecular target: ZAP70 (Homo sapiens, UniProt P43403); test: Kinase selectivity screen; format: biochemical; conditions: ZAP70, 10 μM
Procedure: as §1

[18] = molecular target: p38b MAPK (Homo sapiens, UniProt Q15759); test: Kinase selectivity screen; format: biochemical
Procedure: as §1

[19] = molecular target: p38g MAPK (Homo sapiens, UniProt P53778); test: Kinase selectivity screen; format: biochemical
Procedure: as §1

Sequence of IGF-1R (P08069 31-1367): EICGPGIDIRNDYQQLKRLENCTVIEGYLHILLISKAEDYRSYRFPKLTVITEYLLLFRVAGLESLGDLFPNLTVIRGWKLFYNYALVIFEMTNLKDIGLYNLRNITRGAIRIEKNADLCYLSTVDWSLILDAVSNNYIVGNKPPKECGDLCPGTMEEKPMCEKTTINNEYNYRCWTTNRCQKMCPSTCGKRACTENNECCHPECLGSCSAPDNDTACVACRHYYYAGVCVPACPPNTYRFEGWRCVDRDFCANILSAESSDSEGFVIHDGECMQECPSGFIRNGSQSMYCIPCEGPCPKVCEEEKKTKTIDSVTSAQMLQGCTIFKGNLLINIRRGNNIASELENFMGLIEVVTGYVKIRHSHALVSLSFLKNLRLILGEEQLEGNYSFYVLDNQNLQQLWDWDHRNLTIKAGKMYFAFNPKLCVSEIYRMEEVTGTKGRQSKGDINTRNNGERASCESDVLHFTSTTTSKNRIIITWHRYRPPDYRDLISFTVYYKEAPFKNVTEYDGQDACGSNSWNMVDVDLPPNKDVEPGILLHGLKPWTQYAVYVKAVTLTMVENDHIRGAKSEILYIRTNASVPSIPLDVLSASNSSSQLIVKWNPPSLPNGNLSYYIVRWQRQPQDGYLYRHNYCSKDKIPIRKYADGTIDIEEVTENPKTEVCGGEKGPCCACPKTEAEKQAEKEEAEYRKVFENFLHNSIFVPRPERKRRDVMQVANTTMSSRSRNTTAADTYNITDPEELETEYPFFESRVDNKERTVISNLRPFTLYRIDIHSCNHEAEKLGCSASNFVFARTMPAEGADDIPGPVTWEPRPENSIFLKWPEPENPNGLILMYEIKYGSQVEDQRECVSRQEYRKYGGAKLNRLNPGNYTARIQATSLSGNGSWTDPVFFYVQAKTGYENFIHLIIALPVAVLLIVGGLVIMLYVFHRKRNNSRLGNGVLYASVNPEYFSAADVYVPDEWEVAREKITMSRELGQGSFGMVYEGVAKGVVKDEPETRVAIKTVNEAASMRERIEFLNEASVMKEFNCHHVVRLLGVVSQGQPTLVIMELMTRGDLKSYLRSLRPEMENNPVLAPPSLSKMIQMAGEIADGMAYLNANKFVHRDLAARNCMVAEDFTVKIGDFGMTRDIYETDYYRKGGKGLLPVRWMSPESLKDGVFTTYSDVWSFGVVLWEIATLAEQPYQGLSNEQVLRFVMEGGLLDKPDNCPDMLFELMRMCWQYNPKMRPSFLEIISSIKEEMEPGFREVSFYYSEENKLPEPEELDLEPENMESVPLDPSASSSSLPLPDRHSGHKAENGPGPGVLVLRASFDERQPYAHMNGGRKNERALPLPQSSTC
Sequence of EPH-A4 (P54764 20-986): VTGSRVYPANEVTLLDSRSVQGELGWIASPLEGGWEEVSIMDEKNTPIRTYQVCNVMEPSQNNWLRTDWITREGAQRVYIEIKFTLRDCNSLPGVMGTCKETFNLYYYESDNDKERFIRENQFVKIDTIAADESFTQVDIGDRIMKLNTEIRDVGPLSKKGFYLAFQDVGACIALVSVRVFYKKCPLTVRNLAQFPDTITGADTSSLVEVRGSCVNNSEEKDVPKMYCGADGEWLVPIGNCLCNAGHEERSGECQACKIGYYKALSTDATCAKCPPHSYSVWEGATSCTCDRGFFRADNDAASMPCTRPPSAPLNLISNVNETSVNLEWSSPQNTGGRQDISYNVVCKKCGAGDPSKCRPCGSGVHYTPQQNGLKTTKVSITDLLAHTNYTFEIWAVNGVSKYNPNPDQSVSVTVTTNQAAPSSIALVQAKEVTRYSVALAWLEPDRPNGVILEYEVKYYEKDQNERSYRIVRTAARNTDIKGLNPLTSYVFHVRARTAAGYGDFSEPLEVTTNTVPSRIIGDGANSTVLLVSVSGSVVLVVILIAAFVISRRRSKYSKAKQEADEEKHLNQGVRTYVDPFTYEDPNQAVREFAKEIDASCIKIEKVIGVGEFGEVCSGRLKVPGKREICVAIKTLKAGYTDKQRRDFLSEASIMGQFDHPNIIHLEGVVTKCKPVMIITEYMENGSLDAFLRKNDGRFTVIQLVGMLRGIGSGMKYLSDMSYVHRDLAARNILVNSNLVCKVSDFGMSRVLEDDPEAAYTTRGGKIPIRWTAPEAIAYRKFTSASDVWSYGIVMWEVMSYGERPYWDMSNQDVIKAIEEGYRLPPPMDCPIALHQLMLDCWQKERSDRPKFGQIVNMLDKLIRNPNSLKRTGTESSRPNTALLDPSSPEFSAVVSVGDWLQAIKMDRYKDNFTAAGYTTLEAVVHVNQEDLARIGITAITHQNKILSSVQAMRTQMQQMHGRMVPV
Sequence of JAK2 (O60674 whole entry): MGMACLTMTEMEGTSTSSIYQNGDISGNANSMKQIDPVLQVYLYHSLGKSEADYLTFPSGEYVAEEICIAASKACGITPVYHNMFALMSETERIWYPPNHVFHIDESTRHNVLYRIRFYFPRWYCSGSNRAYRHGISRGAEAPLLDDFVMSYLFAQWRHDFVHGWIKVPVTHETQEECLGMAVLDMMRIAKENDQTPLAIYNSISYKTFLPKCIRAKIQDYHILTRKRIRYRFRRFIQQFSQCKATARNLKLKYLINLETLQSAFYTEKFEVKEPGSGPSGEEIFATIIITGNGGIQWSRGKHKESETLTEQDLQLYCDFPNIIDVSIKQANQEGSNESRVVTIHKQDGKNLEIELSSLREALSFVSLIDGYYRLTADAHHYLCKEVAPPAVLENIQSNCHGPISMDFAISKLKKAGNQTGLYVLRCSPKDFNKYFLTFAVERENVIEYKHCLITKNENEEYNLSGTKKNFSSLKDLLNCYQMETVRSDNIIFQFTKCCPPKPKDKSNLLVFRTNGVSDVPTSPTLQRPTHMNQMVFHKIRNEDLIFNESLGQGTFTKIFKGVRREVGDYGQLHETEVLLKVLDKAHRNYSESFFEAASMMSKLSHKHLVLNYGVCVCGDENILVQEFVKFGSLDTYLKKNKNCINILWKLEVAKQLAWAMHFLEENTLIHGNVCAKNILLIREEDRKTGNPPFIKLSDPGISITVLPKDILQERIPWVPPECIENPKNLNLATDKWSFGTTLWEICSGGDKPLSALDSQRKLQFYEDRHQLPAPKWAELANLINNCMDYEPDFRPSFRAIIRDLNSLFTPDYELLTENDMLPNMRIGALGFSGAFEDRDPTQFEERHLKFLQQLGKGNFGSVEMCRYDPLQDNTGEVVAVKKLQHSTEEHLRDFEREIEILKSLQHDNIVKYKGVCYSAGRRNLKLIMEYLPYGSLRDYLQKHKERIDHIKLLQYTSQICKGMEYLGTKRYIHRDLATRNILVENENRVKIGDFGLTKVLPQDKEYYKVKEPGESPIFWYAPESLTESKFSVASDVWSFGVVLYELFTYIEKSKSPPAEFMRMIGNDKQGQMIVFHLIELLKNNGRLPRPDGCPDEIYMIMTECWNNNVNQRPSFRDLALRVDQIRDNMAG
Sequence of p38g MAPK (P53778 whole entry): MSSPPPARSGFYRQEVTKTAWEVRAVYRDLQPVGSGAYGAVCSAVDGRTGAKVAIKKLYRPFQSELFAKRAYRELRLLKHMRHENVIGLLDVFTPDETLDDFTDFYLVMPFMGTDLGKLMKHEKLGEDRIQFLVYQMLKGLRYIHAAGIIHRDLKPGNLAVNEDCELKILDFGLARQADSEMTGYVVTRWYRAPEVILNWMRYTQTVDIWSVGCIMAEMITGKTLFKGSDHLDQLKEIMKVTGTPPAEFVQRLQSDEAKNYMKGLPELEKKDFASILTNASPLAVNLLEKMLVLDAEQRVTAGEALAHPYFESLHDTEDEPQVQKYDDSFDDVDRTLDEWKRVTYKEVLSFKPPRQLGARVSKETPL
Sequence of LKB1 (Q15831 whole entry): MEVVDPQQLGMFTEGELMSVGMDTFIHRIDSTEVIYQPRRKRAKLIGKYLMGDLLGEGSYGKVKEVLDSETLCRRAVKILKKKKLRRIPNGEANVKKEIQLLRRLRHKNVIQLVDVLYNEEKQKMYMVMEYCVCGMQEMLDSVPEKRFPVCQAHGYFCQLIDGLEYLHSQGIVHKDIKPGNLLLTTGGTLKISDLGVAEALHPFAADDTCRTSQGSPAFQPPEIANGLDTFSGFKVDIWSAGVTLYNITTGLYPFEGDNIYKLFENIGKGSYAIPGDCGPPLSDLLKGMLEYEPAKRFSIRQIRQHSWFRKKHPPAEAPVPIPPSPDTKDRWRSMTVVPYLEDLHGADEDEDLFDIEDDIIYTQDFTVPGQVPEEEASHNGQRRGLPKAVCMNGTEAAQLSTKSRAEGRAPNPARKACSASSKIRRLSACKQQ
Sequence of LKB1 (Q7RTN6 whole entry partner): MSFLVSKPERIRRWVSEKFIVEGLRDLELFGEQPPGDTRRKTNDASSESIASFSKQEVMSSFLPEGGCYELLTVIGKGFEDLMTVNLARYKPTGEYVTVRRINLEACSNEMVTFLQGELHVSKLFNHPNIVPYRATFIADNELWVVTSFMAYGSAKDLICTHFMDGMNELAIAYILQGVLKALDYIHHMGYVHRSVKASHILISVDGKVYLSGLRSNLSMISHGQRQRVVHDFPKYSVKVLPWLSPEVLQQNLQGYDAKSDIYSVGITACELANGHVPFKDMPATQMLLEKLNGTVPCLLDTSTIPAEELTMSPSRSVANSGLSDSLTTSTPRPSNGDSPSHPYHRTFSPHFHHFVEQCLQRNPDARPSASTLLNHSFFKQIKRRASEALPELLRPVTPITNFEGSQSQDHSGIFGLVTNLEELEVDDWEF
Sequence of LKB1 (Q9Y376 whole entry partner): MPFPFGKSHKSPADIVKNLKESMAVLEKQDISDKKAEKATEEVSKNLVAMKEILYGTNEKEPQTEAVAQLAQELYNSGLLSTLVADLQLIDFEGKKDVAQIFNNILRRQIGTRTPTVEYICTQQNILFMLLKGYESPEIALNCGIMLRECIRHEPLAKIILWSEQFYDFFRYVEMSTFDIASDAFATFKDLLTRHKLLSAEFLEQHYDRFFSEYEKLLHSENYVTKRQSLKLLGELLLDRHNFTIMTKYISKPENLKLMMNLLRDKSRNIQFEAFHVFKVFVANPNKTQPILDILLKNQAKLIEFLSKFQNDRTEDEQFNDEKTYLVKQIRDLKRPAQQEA

How did the GI50 ([1]; read-out: GI50 range across all cell lines) turn out when `CN(C)c1cc[n+](CCCCCCCCCCCC[n+]2ccc(N(C)C)cc2)cc1` [ICL-CCIC-0019] was run?
The GI50 was 38.9 to 16200 nM.

And the GI50 ([1]; read-out: median GI50 across all cell lines)?
Its GI50 is 1120 nM.

What about the “increase of cells in G1 phase” value ([2]; 10 μM, 24 h) of the same compound?
The value was 2 fold.

What about the “increase of sub-G1 population” value ([2]; 48 h) of the same compound?
Its value is 3.7 fold.

What about the antitumour activity [3] of the same compound?
Its antitumour activity is “potent antitumour activity”.

What about the GI50 [4] of the same compound?
The GI50 was 380 nM.

What about the remaining activity at 10 µM [5] of the same compound?
Its remaining activity at 10 µM is 124%.

And the remaining activity at 10 µM [6]?
The remaining activity at 10 µM was 91%.

What about the remaining activity at 10 µM [7] of the same compound?
Its remaining activity at 10 µM is 89%.

And the inhibition at 10 µM [8]?
The inhibition at 10 µM was 35 ± 7%.

And the remaining activity at 10 µM [8]?
Its remaining activity at 10 µM is 65%.

What about the remaining activity at 10 µM [9] of the same compound?
Its remaining activity at 10 µM is 90%.

What about the remaining activity at 10 µM [10] of the same compound?
The remaining activity at 10 µM was 100%.

And the remaining activity at 10 µM [11]?
Its remaining activity at 10 µM is 92%.

What about the remaining activity at 10 µM [12] of the same compound?
Its remaining activity at 10 µM is 106%.

What about the remaining activity at 10 µM [13] of the same compound?
The remaining activity at 10 µM was 97%.

What about the remaining activity at 10 µM [14] of the same compound?
The remaining activity at 10 µM was 92%.

And the remaining activity at 10 µM [15]?
The remaining activity at 10 µM was 105%.

And the remaining activity at 10 µM [16]?
Its remaining activity at 10 µM is 89%.

What about the remaining activity at 10 µM [17] of the same compound?
The remaining activity at 10 µM was 102%.

And the remaining activity at 10 µM [18]?
Its remaining activity at 10 µM is 107%.

And the remaining activity at 10 µM [19]?
Its remaining activity at 10 µM is 99%.
